From patent US9931329B2, “Phenyl triazole derivative and its use for modulating the GABAA receptor complex” (SANIONA A/S, priority 2012, dated 2018)

Experiments:
[1] = molecular target: T1, human GABAA α5β3*γ2S receptor (Homo sapiens, UniProt P18507+P31644); assay: In vitro inhibition of 3H-flumazenil binding, HEK cells expressing human GABAA α5β3*γ2S receptor
T1 construct: expressed in transfected cells
Experimental: When the cultures reach confluency, the DMEM is removed and the cells are washed (10 ml for T175 flasks; 50 ml for roller bottles) once in Dulbecco's Phosphate Buffered Saline (DPBS). Following addition of DPBS to the cultures (10 ml for T175 flasks; 100 ml for roller bottles) for approximately 5 min cells are easily detached from the surface by shaking or tapping the flask gently. The cell suspension is transferred to Falcon tubes and centrifuged at 23,500×g for 10 min at 2° C. The pellet is washed once in 15 ml Tris-citrate buffer (50 mM, pH 7.1) using an Ultra-Turrax homogenizer and centrifuged at 2° C. for 10 min at 27,000×g. The washed pellet is re-suspended in 15 ml Tris-citrate buffer and frozen at −80° C. until the day of the binding experiment.
On the day of the experiment the cell membrane preparation is thawed and centrifuged at 2° C. for 10 min at 27,000×g.
Non-specific binding is determined using clonazepam (1 μM, final concentration). […]
The amount of radioactivity on the filters is determined by conventional liquid scintillation counting using a […]
where B is the binding in percentage of total specific binding; C is the concentration of test compound; and n is the Hill coefficient. […] The IC50 value is calculated from the concentration response curves by the non-linear regression method using the curve-fitting program GraphPad Prism.

T1 sequence (P31644 32-462): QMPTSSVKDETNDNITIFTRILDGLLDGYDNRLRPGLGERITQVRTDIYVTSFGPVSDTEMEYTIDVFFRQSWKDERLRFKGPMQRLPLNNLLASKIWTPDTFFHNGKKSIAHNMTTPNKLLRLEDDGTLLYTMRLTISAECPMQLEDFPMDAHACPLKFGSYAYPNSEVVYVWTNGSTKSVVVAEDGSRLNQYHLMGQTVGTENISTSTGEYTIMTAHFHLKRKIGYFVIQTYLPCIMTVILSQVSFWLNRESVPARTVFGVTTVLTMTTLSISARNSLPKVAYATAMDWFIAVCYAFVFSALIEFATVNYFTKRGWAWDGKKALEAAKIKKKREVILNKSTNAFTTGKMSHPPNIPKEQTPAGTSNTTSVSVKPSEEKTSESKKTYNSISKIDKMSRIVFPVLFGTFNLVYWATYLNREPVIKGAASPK
T1 sequence (P18507 40-467 isoform P18507-1 limits assumed): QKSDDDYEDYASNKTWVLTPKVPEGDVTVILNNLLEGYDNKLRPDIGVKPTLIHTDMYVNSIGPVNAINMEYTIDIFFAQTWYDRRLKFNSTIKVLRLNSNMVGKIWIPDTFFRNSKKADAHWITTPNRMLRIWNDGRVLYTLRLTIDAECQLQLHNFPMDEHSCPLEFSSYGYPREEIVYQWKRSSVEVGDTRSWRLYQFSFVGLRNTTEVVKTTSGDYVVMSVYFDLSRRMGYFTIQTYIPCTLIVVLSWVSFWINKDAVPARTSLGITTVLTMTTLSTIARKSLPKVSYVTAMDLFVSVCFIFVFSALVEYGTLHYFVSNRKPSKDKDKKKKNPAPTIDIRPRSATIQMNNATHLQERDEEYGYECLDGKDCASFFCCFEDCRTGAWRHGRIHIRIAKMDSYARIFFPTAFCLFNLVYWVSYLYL

Question: Which melting point does the source give for `Cn1nnc(-c2ccccc2F)c1COc1ccc(-n2cnc(C#N)c2)cn1` [Compound 7, 1-{6-[5-(2-Fluoro-phenyl)-3-methyl-3H-[1,2,3]triazol-4-ylmethoxy]-pyridin-3-yl}-1H-imidazole-4-carbonitrile] here?
Answer: 178 to 181.5 °C

Question: What about the Ki [1] of the same compound?
Answer: 20 nM
